Positions count from the first letter of the chain named.
What was measured:
[1] = biological target: T1, AT1 C76A/S115C/C289A mutant receptor (Rattus norvegicus, UniProt P25095, C289A/C76A/S115C); test: competition binding, C76A/S115C/C289A mutant; conditions: for Kd ratio relative to WT (in parentheses): C76A/S115C/C289A / WT; for Kd: C76A/S115C/C289A, COS1 membranes, read-out: Binding affinity (Kd)
T1 construct: expressed in transfected cells; host or cells: COS1 cells (membranes)
T1 sequence (P25095 1-359 C76A/S115C/C289A): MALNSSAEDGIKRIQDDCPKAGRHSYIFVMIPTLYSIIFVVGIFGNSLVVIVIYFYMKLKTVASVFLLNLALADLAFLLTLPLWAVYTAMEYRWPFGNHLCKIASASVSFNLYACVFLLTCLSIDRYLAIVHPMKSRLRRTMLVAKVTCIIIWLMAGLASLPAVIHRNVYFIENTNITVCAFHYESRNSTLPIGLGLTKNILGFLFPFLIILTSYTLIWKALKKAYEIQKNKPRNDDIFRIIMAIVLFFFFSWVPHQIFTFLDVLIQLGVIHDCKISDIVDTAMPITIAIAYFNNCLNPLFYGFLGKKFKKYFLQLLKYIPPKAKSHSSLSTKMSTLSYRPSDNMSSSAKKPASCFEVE
Protocol: (§1) The Kd and Bmax values of receptor binding were determined by ^125I-[Sar^1, Ile^8] […] Membranes expressing the WT or mutant AT1 receptors were incubated with 100 pM ^125I-[Sar^1, Ile^8] […] The binding reaction was terminated by filtering the incubation mixture through Whatman GF/C glass filters, and the residues were extensively washed further with binding buffer. The bound ligand fraction was determined from the counts per minute (cpm) remaining on the membrane. Binding kinetics values were determined as previously described.

[2] = biological target: T2, AT1 C76A/V108C/C289A mutant receptor (Rattus norvegicus, UniProt P25095, C289A/C76A/V108C); test: competition binding, C76A/V108C/C289A mutant; conditions: for Kd ratio relative to WT (in parentheses): C76A/V108C/C289A / WT; for Kd: C76A/V108C/C289A, COS1 membranes, read-out: Binding affinity (Kd)
T2 construct: expressed in transfected cells; host or cells: COS1
T2 sequence (P25095 1-359 C76A/V108C/C289A): T1 sequence (P25095 1-359 C76A/S115C/C289A) with V108C, C115S
Protocol: as §1

[3] = biological target: T3, AT1 C76A/N111C/C289A mutant receptor (Rattus norvegicus, UniProt P25095, C289A/C76A/N111C); test: competition binding, C76A/N111C/C289A mutant; conditions: for Kd ratio relative to WT (in parentheses): C76A/N111C/C289A / WT; for Kd: C76A/N111C/C289A, COS1 membranes, read-out: Binding affinity (Kd)
T3 construct: expressed in transfected cells; host or cells: COS1
T3 sequence (P25095 1-359 C76A/N111C/C289A): T1 sequence (P25095 1-359 C76A/S115C/C289A) with N111C, C115S
Protocol: as §1

[4] = biological target: T4, AT1 C76A/A106C/C289A mutant receptor (Rattus norvegicus, UniProt P25095, A106C/C289A/C76A); test: competition binding, C76A/A106C/C289A mutant; conditions: for Kd ratio relative to WT (in parentheses): C76A/A106C/C289A / WT; for Kd: C76A/A106C/C289A, COS1 membranes, read-out: Binding affinity (Kd)
T4 construct: expressed in transfected cells; host or cells: COS1
T4 sequence (P25095 1-359 C76A/A106C/C289A): T1 sequence (P25095 1-359 C76A/S115C/C289A) with A106C, C115S
Protocol: as §1

[5] = biological target: T5, AT1 V108A mutant receptor (Rattus norvegicus, UniProt P25095, V108A); test: competition binding, V108A mutant; conditions: for Kd ratio relative to WT (in parentheses): V108A / WT; for Kd: V108A, COS1 membranes, read-out: Binding affinity (Kd)
T5 construct: expressed in transfected cells; host or cells: COS1
T5 sequence (P25095 1-359 V108A): T1 sequence (P25095 1-359 C76A/S115C/C289A) with A76C, V108A, C115S, A289C
Protocol: as §1

[6] = biological target: T6, AT1 S109A mutant receptor (Rattus norvegicus, UniProt P25095, S109A); test: competition binding, S109A mutant; conditions: for Kd ratio relative to WT (in parentheses): S109A / WT; for Kd: S109A, COS1 membranes, read-out: Binding affinity (Kd)
T6 construct: expressed in transfected cells; host or cells: COS1
T6 sequence (P25095 1-359 S109A): T1 sequence (P25095 1-359 C76A/S115C/C289A) with A76C, S109A, C115S, A289C
Protocol: as §1

CCCc1nc(C(C)(C)O)c(C(=O)O)n1Cc1ccc(-c2ccccc2-c2nnn[nH]2)cc1 [Olmesartan, olmesartan, reference compound]
Kd ratio relative to WT (in parentheses) [1]: 2.8 fold
Kd [1]: 6.5 ± 1.8 nM
Kd ratio relative to WT (in parentheses) [2]: 14 fold
Kd [2]: 32 ± 1 nM
Kd ratio relative to WT (in parentheses) [3]: 5.2 fold
Kd [3]: 12 ± 4 nM
Kd ratio relative to WT (in parentheses) [4]: 3.9 fold
Kd [4]: 8.9 ± 4 nM
Kd ratio relative to WT (in parentheses) [5]: 2.1 fold
Kd [5]: 4.8 ± 2 nM
Kd ratio relative to WT (in parentheses) [6]: 1.1 fold
Kd [6]: 2.5 ± 0.8 nM

CCCc1nc(C(C)(C)O)c(C(N)=O)n1Cc1ccc(-c2ccccc2-c2nnn[nH]2)cc1 [R239470]
Kd ratio relative to WT (in parentheses) [1]: 5.3 fold
Kd [1]: 4.2 ± 1.6 nM
Kd ratio relative to WT (in parentheses) [2]: 13 fold
Kd [2]: 10 ± 2 nM
Kd ratio relative to WT (in parentheses) [3]: 6.8 fold
Kd [3]: 5.4 ± 3 nM
Kd ratio relative to WT (in parentheses) [4]: 5.1 fold
Kd [4]: 4.1 ± 1 nM
Kd ratio relative to WT (in parentheses) [5]: 2.0 fold
Kd [5]: 1.6 ± 0.8 nM
Kd ratio relative to WT (in parentheses) [6]: 1.1 fold
Kd [6]: 0.9 ± 0.2 nM

CCCc1nc(C(C)(C)O)c(C(N)=O)n1Cc1ccc(-c2cc(Cc3ccc(O)cc3)ccc2-c2nnn[nH]2)cc1 [R794847]
Kd ratio relative to WT (in parentheses) [1]: 14 fold
Kd [1]: 657 ± 114 nM
Kd ratio relative to WT (in parentheses) [2]: 8 fold
Kd [2]: 391 ± 54 nM
Kd ratio relative to WT (in parentheses) [3]: 3.8 fold
Kd [3]: 180 ± 94 nM
Kd ratio relative to WT (in parentheses) [4]: 4.0 fold
Kd [4]: 193 ± 73 nM
Kd ratio relative to WT (in parentheses) [5]: 51 fold
Kd [5]: 2450 ± 1310 nM
Kd ratio relative to WT (in parentheses) [6]: 0.7 fold
Kd [6]: 34 ± 11 nM
